# Measured values reported in patent publication US10807970B2 (priority 2016, dated 2020).
# Molecular target: human σ1 receptor (Homo sapiens, UniProt Q99720)
# Experiment: Human σ1 receptor radioligand assay ([3H](+)-pentazocine, transfected HEK-293 membranes)
# Assay type: binding
# Set-up: μ and σ1 dual binding: key to the marks not given beside the values
# Conditions: one class symbol for both Ki-σ1 (human σ1 receptor, A1) and Ki-μ (human μ-opioid receptor, A2)
# How it was run: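 Membranes from HEK-293 cells transfected with human σ1 receptor (7 μg) incubated with 5 nM [3H](+)-pentazocine in 50 mM Tris-HCl pH 8, 120 min at 37° C. Non-specific binding defined with 10 μM haloperidol. Bound radioligand separated by filtration, washed with ice-cold 10 mM Tris-HCl pH 7.4, and counted by scintillation.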
# human σ1 receptor, sequence (Q99720 whole entry): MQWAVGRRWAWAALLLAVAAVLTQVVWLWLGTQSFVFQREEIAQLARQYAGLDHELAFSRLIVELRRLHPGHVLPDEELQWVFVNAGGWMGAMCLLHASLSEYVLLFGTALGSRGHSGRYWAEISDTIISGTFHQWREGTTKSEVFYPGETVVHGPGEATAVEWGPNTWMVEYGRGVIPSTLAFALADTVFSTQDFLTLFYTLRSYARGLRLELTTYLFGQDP
row,SMILES,μ and σ1 dual binding
1,CCOCCN1CCC(C2(C(=O)c3ccccn3)CCOC(C)(C)C2)CC1 (centres unmarked) [Example 104],++
2,"O=C(c1ccccn1)C1(C2CCN(Cc3ccccc3)CC2)CCOCC1 [Example 21, (4-(1-benzylpiperidin-4-yl)tetrahydro-2H-pyran-4-yl)(pyridin-2-yl)methanone]",++
3,"CC(C)CCN1CCN(C2(C)CCOCC2)CC1 [Example 178, 1-isopentyl-4-(4-methyltetrahydro-2H-pyran-4-yl)piperazine]",++
4,"O=C(c1ccccn1)C1(N2CCN(Cc3ccccc3)CC2)CCOCC1 [Example 8, (4-(4-benzylpiperazin-1-yl)tetrahydro-2H-pyran-4-yl)(pyridin-2-yl)methanone]",++
5,"CC1(C)CC(C(O)c2ccccn2)(N2CCN(Cc3ccccc3)CC2)CCO1 (centres unmarked) [Example 129, (4-(4-benzylpiperazin-1-yl)-2,2-dimethyltetrahydro-2H-pyran-4-yl)(pyridin-2-yl)methanol]",++
6,CC(C)CCN1CCC([C@@]2(C(=O)c3ccccn3)CCO[C@@H](C)C2)CC1 [Example 171],++
7,"CC1(C)CC(C(=O)c2ccccn2)(C2CCN(Cc3ccccc3F)CC2)CCO1 (centres unmarked) [Example 110, (4-(1-(2-fluorobenzyl)piperidin-4-yl)-2,2-dimethyltetrahydro-2H-pyran-4-yl)(pyridin-2-yl)methanone]",++

# Same assay, conditions: one class symbol for both Ki-σ1 (human σ1 receptor, A1) and Ki-μ (human μ-opioid receptor, A2); read-out: μ and σ1 dual binding
row,Ki [µM],SMILES
1,> 0.5,"CC1(C)CC(C(=O)c2ccccn2)(N2CCN(Cc3ccncc3)CC2)CCO1 (centres unmarked) [Example 59, (2,2-dimethyl-4-(4-(pyridin-4-ylmethyl)piperazin-1-yl)tetrahydro-2H-pyran-4-yl)(pyridin-2-yl)methanone]"
2,> 0.5,"COc1ccc(CN2CCN(C3(C(=O)c4ccccn4)CCOCC3)CC2)cc1 [Example 195, (4-(4-(4-methoxybenzyl)piperazin-1-yl)tetrahydro-2H-pyran-4-yl)(pyridin-2-yl)methanone]"

row,SMILES,Ki [µM]
1,"CC(C)OCCN(C)[C@@H]1CCN([C@@]2(C(=O)c3ccccn3)CCOC(C)(C)C2)C1 [Example 145, ((S)-4-((R)-3-((2-isopropoxyethyl)(methyl)amino)pyrrolidin-1-yl)-2,2-dimethyltetrahydro-2H-pyran-4-yl)(pyridin-2-yl)methanone]",> 0.5

# Same assay, conditions: μ and σ1 dual binding, one class symbol for both Ki-σ1 (human σ1 receptor, A1) and Ki-μ (human μ-opioid receptor, A2)
row,SMILES,Ki [µM]
1,"CC(C)C1(N2CCN(CCc3ccccc3F)CC2)CCOC(C)(C)C1 (centres unmarked) [Example 89, 1-(2-fluorophenethyl)-4-(4-isopropyl-2,2-dimethyltetrahydro-2H-pyran-4-yl)piperazine]",< 0.5
2,"CC1(C)CC(C(=O)c2ccccn2)(N2CCN(CCc3ccncc3F)CC2)CCO1 (centres unmarked) [Example 85, (4-(4-(2-(3-fluoropyridin-4-yl)ethyl)piperazin-1-yl)-2,2-dimethyltetrahydro-2H-pyran-4-yl)(pyridin-2-yl)methanone]",< 0.5
3,"CC(C)OCCN1CCN(C2(C(=O)c3cccc(C(F)(F)F)n3)CCOC(C)(C)C2)CC1 (centres unmarked) [Example 16, (4-(4-(2-isopropoxyethyl)piperazin-1-yl)-2,2-dimethyltetrahydro-2H-pyran-4-yl)(6-(trifluoromethyl)pyridin-2-yl)methanone]",< 0.5
4,"CC1(C)CC(c2ccccn2)(C2CCN(Cc3ccccc3)CC2)CCO1 (centres unmarked) [Example 125, 2-(4-(1-benzylpiperidin-4-yl)-2,2-dimethyltetrahydro-2H-pyran-4-yl)pyridine]",> 0.5
5,"CC1(C)CC(C(=O)c2ccccn2)(N2CCN(Cc3ccc(F)cc3)CC2)CCO1 (centres unmarked) [Example 60, (4-(4-(4-fluorobenzyl)piperazin-1-yl)-2,2-dimethyltetrahydro-2H-pyran-4-yl)(pyridin-2-yl)methanone]",< 0.5
6,"CC1(C)CC(C(=O)c2ccccn2)(N2CCN(CCc3ccccc3F)CC2)CCO1 (centres unmarked) [Example 111, (4-(4-(2-fluorophenethyl)piperazin-1-yl)-2,2-dimethyltetrahydro-2H-pyran-4-yl)(pyridin-2-yl)methanone]",< 0.5
7,"CCC1(N2CCN(Cc3ccccc3)CC2)CCOC2(CCCC2)C1 (centres unmarked) [Example 29, 1-benzyl-4-(9-ethyl-6-oxaspiro[4.5]decan-9-yl)piperazine]",< 0.5
